By IC50 is commonly meant the concentration needed to halve the response being measured.

This passage reports IC50 results from ChEMBL document CHEMBL3639124, “Oxadiazole inhibitors of leukotriene production” (2013).

The experiment has as its target T1, Arachidonate 5-lipoxygenase-activating protein (Homo sapiens, UniProt P20292).
T1 sequence (P20292 whole entry): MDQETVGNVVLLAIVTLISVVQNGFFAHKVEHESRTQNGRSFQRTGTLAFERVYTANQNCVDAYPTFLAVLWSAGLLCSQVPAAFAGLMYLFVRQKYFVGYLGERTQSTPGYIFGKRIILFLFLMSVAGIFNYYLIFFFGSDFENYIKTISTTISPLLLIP
Briefly: Binding Assay: Compounds area assessed for the ability to bind to FLAP in a binding assay that measures compound-specific displacement of an iodinated (125I) FLAP inhibitor via a scintillaion proximity assay format (adapted from S. Charleson et. al., Mol. Pharmacol., 1992,41 873-879).
In turn, `CN1CCN(c2cnc(-c3nc(C4(c5ccc(-c6cnc(N)nc6)nc5)CCC4)no3)cn2)CC1` registered an IC50 of 1.8 nM.

In turn, `CC(C)(C)NC(=O)Cn1cc(-c2nc(C3(c4ccc(-c5cnc(N)nc5)nc4)CCC3)no2)cn1` yielded an IC50 of 14 nM.

For the compound `COCCNc1cnc(-c2nc(C3(c4ccc(-c5cnc(N)nc5)nc4)CCC3)no2)cn1`, the IC50 is 3.2 nM.

Compound `COC(=O)[C@@H]1CN(c2ccc(-c3nc(C4(c5ccc(-c6cnc(N)nc6)nc5)CCC4)no3)cn2)CCN1` had an IC50 of 3.7 nM. The IC50 values of the last two compounds are within 1.5-fold of each other.

Consider `CCNc1cnc(-c2nc(C3(c4ccc(-c5cnc(N)nc5)nc4)CCC3)no2)cn1`, for which the IC50 was found to be 2.4 nM.

Consider `N#CCn1cc(-c2nc(C3(c4ccc(-c5cnc(N)cn5)nc4)CCC3)no2)cn1`, for which the IC50 turned out to be 48 nM.

With `Nc1ncc(-c2ccc(C3(c4noc(-c5ccc6[nH]ncc6c5)n4)CCC3)cn2)cn1`, the IC50 was 4 nM.

As to `COCCn1cc(-c2nc(C3(c4ccc(-c5cnc(N)nc5)nc4)CCC3)no2)cn1`, the IC50 worked out at 17 nM.

In turn, `CCNC(=O)Cn1cc(-c2nc(C3(c4ccc(-c5cnc(N)nc5)nc4)CCC3)no2)cn1` displayed an IC50 of 100 nM.
